Source: patent publication US10111847B2, “Compounds and methods for modulating vascular injury” (The Regents of the University of California, priority 2012, dated 2018)

Legend:
Format in all cases: cell-based, human
IL-1β-stimulated VSMC = assay: Static monocyte (U937) adhesion assay, IL-1β-stimulated VSMC (RvD); details: IL-1β 1 nM 4 hours; 0.01-100 nM
Description: Primary cultures of human greater saphenous vein smooth muscle cells (hVSMC) are isolated from saphenous vein discarded at the time of bypass operation in an Institutional Review Board-approved protocol as described by Conte et al. “Regulation of vein graft hyperplasia by survivin, an inhibitor of apoptosis protein.” Arterioscler Thromb Vasc Biol. 2005; 25:2081-2087. VSMCs are maintained in Dulbecco's modified Eagle's medium (DMEM Low Glucose) (HyClone Laboratories Inc, Logan, Utah) containing 10% fetal bovine serum (FBS) (Invitrogen Life Technologies, Grand Island, N.Y.) and used between passages 2-5. Endothelial cells were maintained in Medium 199 supplemented with EBSS (Hyclone Laboratories, Logan, Utah, USA) and Endothelial Cell Growth Supplement. Cells between passages 3-8 were used for the experiments.
RvD. […] Fluorescence measurements (excitation 494 nm, emission 517 nm) of bound monocytes are made with plate reader (Spectra Max M2, Molecular Devices, LLC, Sunnyvale, Calif.).
FIG. 6: RvD1 and RvD2 modulate cell adhesion response of human VSMC to IL-1β. […] Results are shown as relative percent inhibition, expressed as a percentage of the maximal adhesion for the agonist (n=6, results are mean±SEM, **P<0.01, *P<0.05, unpaired t-test).

VSMC = VSMC proliferation assay (Alamar Blue) in 10% serum; details: 100 nM; standard growth medium (10% serum); P<0.01
Description: Primary cultures of human greater saphenous vein smooth muscle cells (hVSMC) are isolated from saphenous vein discarded at the time of bypass operation in an Institutional Review Board-approved protocol as described by Conte et al. “Regulation of vein graft hyperplasia by survivin, an inhibitor of apoptosis protein.” Arterioscler Thromb Vasc Biol. 2005; 25:2081-2087. VSMCs are maintained in Dulbecco's modified Eagle's medium (DMEM Low Glucose) (HyClone Laboratories Inc, Logan, Utah) containing 10% fetal bovine serum (FBS) (Invitrogen Life Technologies, Grand Island, N.Y.) and used between passages 2-5. […]
Cell proliferation assay is performed as described by Conte et al. Arterioscler Thromb Vasc Biol. 2005; 25:2081-2087. […] Fluorescence measurements (excitation 506 nm, emission 590 nm) are made on media aliquots; a standard curve is generated by correlating emission intensity with viable cell counts using Trypan Blue exclusion.
FIG. 1: RvD1 and RvD2 attenuate cell adhesion, proliferation, and migration responses of human VSMC in-vitro. […] Results are shown as relative percent inhibition, expressed as a percentage of the maximal adhesion for the agonist (n=6, results are mean±SEM, **P<0.01, *P<0.05, unpaired t-test). […] Results are expressed as percentage change in migration from unstimulated control (no PDGF). […]

VCAM-1 = assay: TNF-α-stimulated VCAM-1 gene expression in VSMC by qRT-PCR; details: 100 nM; TNF-α 10 ng/ml 18 hours; P<0.01
Experimental: Cells are plated onto 6-well plates at 100% confluency in DMEM plus 10% FBS and allowed to attached overnight. Cells are then made quiescent by placing in serum-free media for 48-72 hours prior to start of experiments. Cells are treated with or without RvD1 or RvD2 at the indicated concentrations for one hour followed by co-incubation with cytokine (TNF-α 10 ng/ml) for up to 18 hours. In a separate set of experiments to examine the role of G-protein receptors, VSMCs are exposed to TNF-α and RvD2 (10 nM) as described above, in the presence or absence of pertussis toxin (PTX 100 ng/ml). Total RNA from rabbit sample or cells is isolated with PureLink RNA Mini kit (Ambion Life Technologies, Carlsbad, Calif.) with RNase-free DNase treatment according to manufacturer's protocol. One microgram of total RNA (from either VSMC or rabbit tissue) is used to generate cDNA using High Capacity cDNA Reverse Transcription Kit (Applied Biosystems, Foster City, Calif.) for subsequent RT-PCR reactions. Sybrgreen Amplified DNA is detected by incorporation SYBR Green (Qiagen, Germantown, Md.). Dissociation curve analyses are performed to confirm the specificity of the SYBR Green signal. Data is normalized to at least two reference genes. […]
FIG. 2: RvD1 and RvD2 reduce pro-inflammatory gene expression in VSMC. […] Expression of the cell adhesion molecules VCAM-1 (A) and ICAM-1 (B) was measured by qRT-PCR. […]

Compound | inhibition of monocyte adhesion (U937) to IL-1β-stimulated VSMC (IL-1β-stimulated VSMC) | inhibition of VSMC proliferation, maximum effect (VSMC) | VCAM-1 expression, maximum % reduction (VCAM-1)
CC/C=C\C[C@H](O)/C=C/C=C\C=C\C=C\[C@@H](O)[C@@H](O)C/C=C\CCC(=O)O [RvD1, Resolvin D1] | dose-dependent inhibition | 59% | 69%
CC/C=C\C[C@H](O)[C@H](O)/C=C/C=C/C=C\C=C\[C@@H](O)C/C=C\CCC(=O)O [RvD2, resolvin D2] | dose-dependent inhibition | 63% | 76%
